Assay results as given in ChEMBL document CHEMBL4007412, “Design, Synthesis, and Biological Evaluation of Mitochondria-Targeted Flavone-Naphthalimide-Polyamine Conjugates with Antimetastatic Activity” (J Med Chem, 2017).
Calls of active or inactive are those of the source. No cut-off for these calls is given here.

How the values were obtained:
SMMC-7721 [1] = experiment: Cytotoxicity against human SMMC7721 cells assessed as cell growth inhibition after 48 hrs by MTT assay; assay type: functional, cell-based; conditions: SMMC-7721, 48 h
SMMC-7721 [2] = experiment: Inhibition of colony formation of human SMMC7721 cells up to 20 uM […] by crystal violet staining based colony formation assay; assay type: functional, cell-based
SMMC-7721 [3] = experiment: Cytotoxicity against human SMMC7721 cells assessed as reduction in cell viability up to 20 uM after 24 to 72 hrs by MTT assay; assay type: functional, cell-based
HepG2 [4] = experiment: Cytotoxicity against human HepG2 cells assessed as reduction in cell viability up to 20 uM after 24 to 72 hrs by MTT assay; assay type: functional, cell-based
SMMC-7721 [5] = experiment: Antimigratory activity against human SMMC7721 cells incubated for 24 hrs by transwell assay; assay type: functional, cell-based
H22 = experiment: Antimetastatic activity against […] xenografted in pulmonary metastasis Kunming mouse model assessed as reduction in tumor metastatic nodules at 3 mg/kg, iv dosed every day starting from day 8 after tumor cell inoculation; assay type: functional; design: scale not given: the % may be the effect or the level left
Mus musculus = experiment: Toxicity in Kunming mouse xenografted with […] cells assessed as effect on heart weight index at 3 mg/kg, iv dosed every day starting from day 8 after tumor cell inoculation; assay type: organism-based; conditions: in vivo
[6] = Drug uptake in human HepG2 cells assessed as PAT-mediated cellular uptake after 8 hrs by HCS analysis; assay type: ADME, cell-based
[7] = Drug uptake in human SMMC7721 cells assessed as PAT-mediated cellular uptake at 10 uM by HCS analysis; assay type: ADME, cell-based; conditions: TDE = time-dependent effect
HepG2 [8] = experiment: Cytotoxicity against human HepG2 cells assessed as effect on cell viability at 5 to 20 uM after 24 hrs in absence of spermidine by MTT assay; assay type: functional, cell-based
[9] = Drug uptake in human HepG2 cells assessed as PAT-mediated compound uptake by measuring fluorescent intensity at 5 to 10 uM after 6 hrs in presence of spermidine by HCS analysis; assay type: ADME, cell-based
[10] = Drug uptake in human HepG2 cells assessed as PAT-mediated compound uptake by measuring fluorescent intensity at 10 uM after 2 to 8 hrs in presence of spermidine by HCS analysis; assay type: ADME, cell-based
HepG2 [11] = experiment: Effect on ODC expression in human HepG2 cells at 5 to 20 uM after 24 hrs by Western blot analysis; assay type: functional, cell-based
HepG2 [12] = experiment: Effect on SSAT expression in human HepG2 cells at 5 to 20 uM after 24 hrs by Western blot analysis; assay type: functional, cell-based
SMMC-7721 [13] = experiment: Effect on SSAT expression in human SMMC7721 cells at 5 to 20 uM after 24 hrs by Western blot analysis; assay type: functional, cell-based
HepG2 [14] = experiment: Effect on putrescine levels in human HepG2 cells at 20 uM after 24 hrs by HPLC analysis; assay type: functional, cell-based
HepG2 [15] = experiment: Effect on spermidine levels in human HepG2 cells at 20 uM after 24 hrs by HPLC analysis; assay type: functional, cell-based
HepG2 [16] = experiment: Effect on spermine levels in human HepG2 cells at 20 uM after 24 hrs by HPLC analysis; assay type: functional, cell-based
SMMC-7721 [17] = experiment: Effect on putrescine levels in human SMMC7721 cells at 20 uM after 24 hrs by HPLC analysis; assay type: functional, cell-based
SMMC-7721 [18] = experiment: Effect on spermidine levels in human SMMC7721 cells at 20 uM after 24 hrs by HPLC analysis; assay type: functional, cell-based
[19] = Drug localization in human HepG2 cell nucleus at 10 uM after 8 hrs by propidium iodide-staining based microscopic analysis; assay type: ADME
[20] = Drug localization in human HepG2 cell golgi apparatus at 10 uM after 8 hrs by Golgi tracker-staining based confocal microscopic analysis; assay type: ADME
[21] = Drug localization in human HepG2 cell mitochondria at 10 uM after 8 hrs by Mito tracker-staining based confocal microscopic analysis; assay type: ADME
HepG2 [22] = experiment: Disruption of mitochondrial membrane potential in human HepG2 cells at 20 uM after 24 hrs by Rhodamine123 staining-based flow cytometry; assay type: functional, cell-based
HepG2 [23] = experiment: Induction of apoptosis in human HepG2 cells assessed as reduction in viable cells up to 20 uM after 24 hrs by AO/EB double staining based flow cytometric analysis; assay type: functional, cell-based
HepG2 [24] = experiment: Induction of apoptosis in human HepG2 cells assessed as viable cells at 20 uM after 24 hrs by Annexin V-FITC/propidium iodide staining based flow cytometric analysis (reference value: 86 %); assay type: functional; conditions: HepG2, 24 h, read-out: Activity
HepG2 [25] = experiment: Induction of apoptosis in human HepG2 cells assessed as necrotic cells at 20 uM after 24 hrs by Annexin V-FITC/propidium iodide staining based flow cytometric analysis (reference value: 2.99 %); assay type: functional
HepG2 [26] = experiment: Induction of apoptosis in human HepG2 cells assessed as upregulation of cleaved caspase 3 after 24 hrs by immunofluorescence analysis; assay type: functional, cell-based
HepG2 [27] = experiment: Induction of intracellular ROS generation in human HepG2 cells at 20 uM after 8 hrs by DCFH-DA staining based HCS analysis relative to control; assay type: functional
SMMC-7721 [28] = experiment: Induction of intracellular ROS generation in human SMMC7721 cells at 20 uM after 8 hrs by DCFH-DA staining based HCS analysis relative to control; assay type: functional
[29] = Induction of intracellular ROS generation in human QSG7701 cells at 20 uM after 8 hrs by DCFH-DA staining based HCS analysis relative to control; assay type: cell-based; conditions: qsg7701, 8 h
HepG2 [30] = experiment: Induction of H2O2 production in human HepG2 cells; assay type: functional, cell-based
HepG2 [31] = experiment: Induction of ROS generation in human HepG2 cells assessed as depletion of GSH content at 20 uM after 24 hrs by GSSG assay; assay type: functional, cell-based
HepG2 [32] = experiment: Induction of ROS generation in human HepG2 cells at 20 uM after 24 hrs in presence of CAT by DCFH-DA-staining based HCS analysis; assay type: functional, cell-based
HepG2 [33] = experiment: Antiproliferative activity against human HepG2 cells assessed as reduction in cell viability at 20 uM pre-treated with NAC after 48 hrs by MTT assay; assay type: functional, cell-based
HepG2 [34] = experiment: Antiproliferative activity against human HepG2 cells assessed as reduction in cell viability at 20 uM pre-treated with TOC after 48 hrs by MTT assay; assay type: functional, cell-based
SMMC-7721 [35] = experiment: Antiproliferative activity against human SMMC7721 cells assessed as reduction in cell viability at 20 uM pre-treated with NAC after 48 hrs by MTT assay; assay type: functional, cell-based
SMMC-7721 [36] = experiment: Antiproliferative activity against human SMMC7721 cells assessed as reduction in cell viability at 20 uM pre-treated with TOC after 48 hrs by MTT assay; assay type: functional, cell-based
SMMC-7721 [37] = experiment: Antiproliferative activity against human SMMC7721 cells assessed as reduction in cell viability at 20 uM pre-treated with CAT after 48 hrs by MTT assay; assay type: functional, cell-based
HepG2 [38] = experiment: Induction of cleaved caspase 3 expression in human HepG2 cells up to 20 uM pre-treated with NAC measured after 24 hrs by Western blot analysis; assay type: functional, cell-based
HepG2 [39] = experiment: Induction of p53 expression in human HepG2 cells up to 20 uM after 24 hrs by Western blot analysis relative to control; assay type: functional, cell-based
HepG2 [40] = experiment: Induction of p53 expression in human HepG2 cells up to 20 uM pre-treated with NAC after 24 hrs by Western blot analysis relative to control; assay type: functional, cell-based

Compound: Cl.Cl.NCCCCNCCCCN1C(=O)c2cccc3c(-c4cc(=O)c5ccccc5o4)ccc(c23)C1=O
- IC50 (SMMC-7721 [1]): 14.1 µM
- Activity (SMMC-7721 [2]): Active
- Activity (SMMC-7721 [3]): Active
- Activity (HepG2 [4]): Active
- Activity (SMMC-7721 [5]): Dose-dependent effect
- Activity (H22): 77.9%
- Activity (Mus musculus): Non-Toxic
- Drug uptake [6]: Dose-dependent effect
- Drug uptake [7]: Tde
- Activity (HepG2 [8]): Active
- Drug uptake [9]: Not Active
- Drug uptake [10]: Not Active
- Activity (HepG2 [11]): inactive
- Activity (HepG2 [12]): inactive
- Activity (SMMC-7721 [13]): inactive
- Activity (HepG2 [14]): inactive
- Activity (HepG2 [15]): inactive
- Activity (HepG2 [16]): inactive
- Activity (SMMC-7721 [17]): inactive
- Activity (SMMC-7721 [18]): inactive
- Drug uptake [19]: Not Active
- Drug uptake [20]: Not Active
- Drug uptake [21]: Active
- Activity (HepG2 [22]): Active
- Activity (HepG2 [23]): Dose-dependent effect
- viability at 20 µM (HepG2 [24]): 37.8%
- Activity (HepG2 [25]): 8.91%
- Activity (HepG2 [26]): Dose-dependent effect
- fold change (FC) (HepG2 [27]): 2.6
- fold change (FC) (SMMC-7721 [28]): 2.2
- Activity [29]: Non-Toxic
- Activity (HepG2 [30]): Active
- Activity (HepG2 [31]): Active
- Activity (HepG2 [32]): inactive
- Activity (HepG2 [33]): inactive
- Activity (HepG2 [34]): inactive
- Activity (SMMC-7721 [35]): inactive
- Activity (SMMC-7721 [36]): inactive
- Activity (SMMC-7721 [37]): inactive
- Activity (HepG2 [38]): inactive
- Activity (HepG2 [39]): Dose-dependent effect
- Activity (HepG2 [40]): inactive
